Laboratory results as given in patent US11524938B2, “Aromatic sulfonamide derivatives” (Bayer Pharma Aktiengesellschaft, priority 2016, dated 2022).
Values joined by “and” are separate entries in the source; they are usually repeats but may differ in a detail not shown here. Identical values can stand only once.

Target: T1, human P2X4 (Homo sapiens, UniProt Q99571)
T1 sequence (Q99571 1-388): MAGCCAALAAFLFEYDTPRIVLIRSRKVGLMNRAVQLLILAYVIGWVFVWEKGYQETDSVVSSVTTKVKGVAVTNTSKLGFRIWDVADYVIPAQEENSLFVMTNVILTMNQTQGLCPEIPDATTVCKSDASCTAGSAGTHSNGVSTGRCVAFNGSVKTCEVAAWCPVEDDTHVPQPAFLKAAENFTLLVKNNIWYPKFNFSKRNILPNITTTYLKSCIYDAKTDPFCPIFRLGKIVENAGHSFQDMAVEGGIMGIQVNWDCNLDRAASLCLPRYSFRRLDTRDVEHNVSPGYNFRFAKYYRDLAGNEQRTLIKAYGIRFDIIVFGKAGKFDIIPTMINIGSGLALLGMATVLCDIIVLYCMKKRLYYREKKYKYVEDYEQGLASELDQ
Assay: Human P2X4 HEK Cell FLIPR Assay
Format: cell-based
Settings: agonist Bz-ATP at EC80; for Emax: HEK293, HEK293 cells, percentage of maximal inhibition, read-out: Human P2X4 HEK Cells (FLIPR Assay) avg Efficacy [%]; for IC50: HEK293 cells, individual values listed where some fall outside detection range
How it was run: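 HEK293 cells stably expressing human P2X4, Fluo8-AM loaded 30 min at 37° C, then compound 30 min at room temperature (0.5% DMSO, pH 7.4 buffer with 1.8 mM CaCl2). Bz-ATP at its daily-determined EC80 added; calcium fluorescence read over 120 sec; IC50 from peak RFU normalized to agonist control, triplicates.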

Row | Structure (SMILES) | Emax [%] | IC50
1 | COc1ccc(Cl)cc1CC(=O)Nc1ccc(-n2cc(C#N)cn2)c(S(N)(=O)=O)c1 [Example 212, 2-(5-Chloro-2-methoxyphenyl)-N-[4-(4-cyano-1H-pyrazol-1-yl)-3-sulfamoylphenyl]-acetamide] | 86 | 149 nM
2 | NS(=O)(=O)c1cc(NC(=O)Cc2ccccc2Br)ccc1-n1cc(F)cn1 [Example 177, 2-(2-Bromophenyl)-N-[4-(4-fluoro-1H-pyrazol-1-yl)-3-sulfamoylphenyl]acetamide] | 83 | 35 nM
3 | N#Cc1cnn(-c2ccc(NC(=O)Cc3ccccc3C(F)(F)F)cc2S(N)(=O)=O)c1 [Example 184, N-[4-(4-Cyano-1H-pyrazol-1-yl)-3-sulfamoylphenyl]-2-[2-(trifluoromethyl)-phenyl]acetamide] | 96 | 67 nM
4 | CN(C)C(=O)c1cnn(-c2ccc(NC(=O)Cc3ccccc3Cl)cc2S(N)(=O)=O)c1 [Example 399, 1-(4-{[(2-Chlorophenyl)acetyl]amino}-2-sulfamoylphenyl)-N,N-dimethyl-1H-pyrazole-4-carboxamide] | 92 | 84 nM
5 | N#Cc1cnn(-c2ccc(NC(=O)Cc3ccccc3O)cc2S(N)(=O)=O)c1 [Example 193, N-[4-(4-Cyano-1H-pyrazol-1-yl)-3-sulfamoylphenyl]-2-(2-hydroxyphenyl)acetamide] | 84 | 427 nM
6 | NS(=O)(=O)c1cc(NC(=O)Cc2ccccc2Cl)ccc1-n1cnc2ccncc21 [Example 46, 2-(2-Chlorophenyl)-N-[4-(3H-imidazo[4,5-c]pyridin-3-yl)-3-sulfamoylphenyl]-acetamide] | 87 | 916 nM
7 | CC(C)(C)n1cc(-c2ccc(NC(=O)Cc3ccccc3Cl)cc2S(N)(=O)=O)cn1 [Example 335, N-[4-(1-tert-Butyl-1H-pyrazol-4-yl)-3-sulfamoylphenyl]-2-(2-chlorophenyl)acetamide] | 98 | 20 nM
8 | NS(=O)(=O)c1cc(NC(=O)Cc2ccccc2C(F)F)ccc1-n1cc(F)cn1 [Example 51, 2-[2-(Difluoromethyl)phenyl]-N-[4-(4-fluoro-1H-pyrazol-1-yl)-3-sulfamoyl-phenyl]acetamide] | 94 | 134 nM
9 | Cc1nn(C)cc1-c1ccc(NC(=O)Cc2ccccc2Cl)cc1S(N)(=O)=O [Example 358, 2-(2-Chlorophenyl)-N-[4-(1,3-dimethyl-1H-pyrazol-4-yl)-3-sulfamoylphenyl]acetamide] | 88 | 74 nM
10 | NS(=O)(=O)c1cc(NC(=O)Cc2ccccc2[N+](=O)[O-])ccc1-n1cc(Cl)cn1 [Example 78, N-[4-(4-Chloro-1H-pyrazol-1-yl)-3-sulfamoylphenyl]-2-(2-nitrophenyl)acetamide] | 97 | 517 nM
11 | NS(=O)(=O)c1cc(NC(=O)C(O)c2ccccc2Cl)ccc1-c1cnn(C(F)F)c1 (stereo not shown) [Example 324, 2-(2-Chlorophenyl)-N-{4-[1-(difluoromethyl)-1H-pyrazol-4-yl]-3-sulfamoylphenyl}-2-hydroxyethanamide] | 59 | 3050 nM
12 | Cc1ccccc1CC(=O)Nc1ccc(-c2cnn(C(F)F)c2)c(S(N)(=O)=O)c1 [Example 223, N-{4-[1-(Difluoromethyl)-1H-pyrazol-4-yl]-3-sulfamoylphenyl}-2-(2-methylphenyl)-acetamide] | 87 | 26 nM
13 | NS(=O)(=O)c1cc(NC(=O)Cc2ccccc2Cl)ccc1-n1cnc(C(F)F)n1 [Example 17, 2-(2-Chlorophenyl)-N-{4-[3-(difluoromethyl)-1H-1,2,4-triazol-1-yl]-3-sulfamoyl-phenyl}acetamide] | 89 | 288 nM
14 | NS(=O)(=O)c1cc(NC(=O)Cc2ccccc2Cl)ccc1-n1cnc(C(F)(F)F)c1 [Example 10, 2-(2-Chlorophenyl)-N-{3-sulfamoyl-4-[4-(trifluoromethyl)-1H-imidazol-1-yl]phenyl}-acetamide] | 81 | 7 nM
15 | NS(=O)(=O)c1cc(NC(=O)Cc2ccc(Cl)cc2Cl)ccc1-n1cc(C(F)(F)F)cn1 [Example 111, 2-(2,4-Dichlorophenyl)-N-{3-sulfamoyl-4-[4-(trifluoromethyl)-1H-pyrazol-1-yl]phenyl}-acetamide] | 58 | 373 nM
16 | NS(=O)(=O)c1cc(NC(=O)Cc2ccccc2F)cnc1-n1cc(Br)cn1 [Example 386, N-[6-(4-Bromo-1H-pyrazol-1-yl)-5-sulfamoylpyridin-3-yl]-2-(2-fluorophenyl)acetamide] | 64 | 76 nM
17 | NS(=O)(=O)c1cc(NC(=O)Cc2ccccc2Cl)ccc1-n1cc2ccncc2n1 [Example 254, 2-(2-Chlorophenyl)-N-[4-(2H-pyrazolo[3,4-c]pyridin-2-yl)-3-sulfamoylphenyl]-acetamide] | 102 | 41 nM
18 | Cc1noc(C)c1-c1ccc(NC(=O)Cc2ccccc2Cl)cc1S(N)(=O)=O [Example 275, 2-(2-Chlorophenyl)-N-[4-(3,5-dimethyl-1,2-oxazol-4-yl)-3-sulfamoylphenyl]acetamide] | 82 | 507 nM
19 | COc1ccc(Cl)c(CC(=O)Nc2ccc(-n3cc(Cl)cn3)c(S(N)(=O)=O)c2)c1 [Example 101, 2-(2-Chloro-5-methoxyphenyl)-N-[4-(4-chloro-1H-pyrazol-1-yl)-3-sulfamoylphenyl]-acetamide] | 83 | 202 nM

Continued, values first:

Row | Emax [%] | IC50 | Structure (SMILES)
20 | 52 | 6.9 µM and 17.2 µM and > 25 µM (4×) | NS(=O)(=O)c1cc(NC(=O)Cc2ccccc2Cl)ccc1-c1nc(C(F)(F)F)no1 [Example 521, 2-(2-Chlorophenyl)-N-{3-sulfamoyl-4-[3-(trifluoromethyl)-1,2,4-oxadiazol-5-yl]phenyl}acetamide]
21 | 77 | 635 nM | NS(=O)(=O)c1cc(NC(=O)Cc2ccc(Cl)cc2)ccc1-c1cncc(C(F)(F)F)c1 [Example 444, 2-(4-Chlorophenyl)-N-{3-sulfamoyl-4-[5-(trifluoromethyl)pyridin-3-yl]phenyl}acetamide]
22 | 74 | 2640 nM | Cc1ccc(CC(=O)Nc2ccc(-n3ncc(C(F)(F)F)n3)c(S(N)(=O)=O)c2)cc1 [Example 408, 2-(4-Methylphenyl)-N-{3-sulfamoyl-4-[4-(trifluoromethyl)-2H-1,2,3-triazol-2-yl]phenyl}acetamide]
23 | 88 | 64 nM | NS(=O)(=O)c1cc(NC(=O)Cc2ccc(Cl)cc2Cl)ccc1-c1cncc(F)c1 [Example 475, 2-(2,4-Dichlorophenyl)-N-[4-(5-fluoropyridin-3-yl)-3-sulfamoylphenyl]acetamide]
24 | 74 | 5 nM | COc1ccc(CC(=O)Nc2ccc(-c3cncc(C(F)(F)F)c3)c(S(N)(=O)=O)c2)cc1 [Example 455, 2-(4-Methoxyphenyl)-N-{3-sulfamoyl-4-[5-(trifluoromethyl)pyridin-3-yl]phenyl}acetamide]
25 | 83 | 3910 nM | NS(=O)(=O)c1cc(NC(=O)Cc2ccc(C(F)(F)F)cc2Cl)c(C(F)(F)F)cc1-n1cc(F)cn1 [Example 538, 2-[2-Chloro-4-(trifluoromethyl)phenyl]-N-[4-(4-fluoro-1H-pyrazol-1-yl)-5-sulfamoyl-2-(trifluoromethyl)phenyl]acetamide]
26 | 103 | 50 nM | NS(=O)(=O)c1cc(NC(=O)Cc2ccccc2Cl)ccc1-n1nnc2c(F)cc(F)cc21 [Example 481, 2-(2-Chlorophenyl)-N-[4-(4,6-difluoro-1H-benzotriazol-1-yl)-3-sulfamoylphenyl]acetamide]
27 | 76 | 621 nM | NS(=O)(=O)c1cc(NC(=O)Cc2ccc(C(F)(F)F)cc2)ccc1-c1cncc(C(F)(F)F)c1 [Example 446, N-{3-Sulfamoyl-4-[5-(trifluoromethyl)pyridin-3-yl]phenyl}-2-[4-(trifluoromethyl)phenyl]acetamide]
28 | 93 | 9 nM | NS(=O)(=O)c1cc(NC(=O)Cc2ccccc2Br)ccc1-c1ccc(Cl)nc1 [Example 467, 2-(2-Bromophenyl)-N-[4-(6-chloropyridin-3-yl)-3-sulfamoylphenyl]acetamide]
29 | 86 | 71 nM | NS(=O)(=O)c1cc(NC(=O)Cc2ccccc2Cl)ccc1-c1cnc(C(F)(F)F)s1 [Example 483, 2-(2-Chlorophenyl)-N-{3-sulfamoyl-4-[2-(trifluoromethyl)-1,3-thiazol-5-yl]phenyl}acetamide]
30 | 86 | 53 nM | Cc1ncc(-c2ccc(NC(=O)Cc3ccccc3Cl)cc2S(N)(=O)=O)s1 [Example 423, 2-(2-Chlorophenyl)-N-[4-(2-methyl-1,3-thiazol-5-yl)-3-sulfamoylphenyl]acetamide]
31 | 45 | > 25000 nM | N#Cc1cnn(-c2ccc(NC(=O)Cc3ccccc3Cl)c(C(F)(F)F)c2S(N)(=O)=O)c1 [Example 487, 2-(2-Chlorophenyl)-N-[4-(4-cyano-1H-pyrazol-1-yl)-3-sulfamoyl-2-(trifluoromethyl)phenyl]acetamide]
32 | 82 | 5 nM | NC(=O)c1cnn(-c2ccc(NC(=O)Cc3ccccc3Cl)cc2S(N)(=O)=O)c1 [Example 553, 1-(4-{[(2-Chlorophenyl)acetyl]amino}-2-sulfamoylphenyl)-1H-pyrazole-4-carboxamide]
